One compound from patent publication US8410178B2, “CIS 3,4-dihydroxy-2-(3-methylbutanoyl)-5-(3-methylbutyl)-4-(4-methylpentanoyl)cyclopent-2-en-1-derivatives, substantially enantiomerically pure compositions and methods” (KinDex Therapeutics, LLC, priority 2010, dated 2013) can be followed below.

Assay [1] concerns rheumatoid arthritis synovial fibroblasts (RASF). Kind of assay: IL-1β-mediated inflammatory factors in RASFs. In kind it is cell-based, Human. To be noted: IL-1β-induced, 50, 25, 12.5, and 6.25 μM. How it is done: The anti-inflammatory effect of (+)-KDT501 was evaluated in rheumatoid arthritis synovial fibroblasts (RASF).
Human RASF cells (Asterand, Detroit, Mich.) were cultured and maintained in DMEM/F12 (1:1) medium in the presence of 10% fetal bovine serum. Cells were subcultured in 24-well plates at a density of 1×10^4 cells per well and allowed to reach 70-80% confluence in two days. Confluent cells in serum-free medium at a final concentration of 0.1% DMSO were incubated for one hour with (+)-KDT501 at varying concentrations (50, 25, 12.5, and 6.25 μM), then stimulated with […] (10 ng/ml) for 20-24 hours. MMP-13 levels in the medium were measured using an ELISA kit (GE Healthcare, Piscataway, N.J.), and PGE2 levels were measured using an Immuno Assay Kit (Assay Designs, Ann Arbor, Mich.).

Assay [2] addresses T1, GPR120 (Homo sapiens, UniProt Q5NUL3).
T1 sequence (Q5NUL3 1-361): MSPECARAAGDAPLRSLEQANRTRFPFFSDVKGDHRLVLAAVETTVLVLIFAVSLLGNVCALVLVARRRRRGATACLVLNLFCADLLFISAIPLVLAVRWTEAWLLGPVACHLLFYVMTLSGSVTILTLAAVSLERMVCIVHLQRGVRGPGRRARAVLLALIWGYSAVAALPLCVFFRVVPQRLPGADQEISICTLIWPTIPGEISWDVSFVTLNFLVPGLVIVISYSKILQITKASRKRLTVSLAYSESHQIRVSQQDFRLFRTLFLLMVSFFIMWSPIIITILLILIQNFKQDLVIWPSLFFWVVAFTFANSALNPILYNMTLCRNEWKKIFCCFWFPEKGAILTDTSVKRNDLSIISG
Put plainly: GPR120 activity, intracellular calcium response in CHO-K1/GPR120/Gα15 cells. In kind it is cell-based. As to conditions: CHO-K1/GPR120/Gα15 cells; calcium response; unit inferred; read-out: GPR120 agonistic activity EC50. The procedure: GPR120 activity was measured by intracellular calcium response. CHO-K1/GPR120/Gα15 cells were regularly passaged to maintain optimal cell health and cultured in Ham's F12 supplemented with 10% fetal bovine serum, 200 μg/mL zeocin, and 100 μg/mL hygromycin. Cells were seeded in a 384-well black-wall, clear-bottom plate at a density of 20,000 cell per well in 20 μL of growth medium 18 hours prior to the start of the experiment, and maintained at 37° C./5% CO2. Cells were loaded with calcium-4, and baseline fluorescence readings were obtained from 1 second to 20 seconds using a fluorescent imaging plate reader (FLIPR). At 20 seconds, (+)-KDT501 (5× final concentration) was added to the reading plate, and the fluorescence signal was monitored for 100 seconds (21 seconds to 120 seconds). α-linolenic acid (LA), eicosapentaenoic acid (EPA), and docosahexaenoic acid (DHA) were used as controls. Data acquisition and analysis was performed using ScreenWorks (version 3.1) and exported to Excel. The average fluorescence value for the first 20 seconds was calculated as the baseline reading. The relative fluorescent unit (ΔRFU) intensity values were calculated with the maximal fluorescent units (21 s to 120 s), subtracting the baseline reading. Data analysis wizard written by GenScript was used to analyze EC50. Dose response curves of antagonist were fitted using the GraphPad Prism 4 four parameter logistic equation Y=Bottom+(Top−Bottom)/(1+10^((LogIC50−X)*HillSlope)), where X is the logarithm of concentration and Y is response.

Assay [3] deals with Human DAPK1 (Homo sapiens, UniProt P53355). Kind of assay: DAPK1 activity, cell free kinase assay. In kind it is biochemical. The procedure:
The effect of (+)-KDT501 and (−)-KDT501 on death-associated protein kinase 1 (DAPK1) activity was evaluated.
Human DAPK1 was incubated with 8 mM MOPS, pH 7.0, 0.2 mM EDTA, 250 μM ZIP peptide substrate ([…]), 10 mM MgOAc, and [γ-^33P-ATP] (specific activity approximately 500 cpm/pmol, concentration as required). (+)-KDT501 or (−)-KDT501 at varying concentrations (100, 30, 10, 1, 0.3, 0.1, 0.03, 0.01 μM) were added to the reaction mixture. The reaction was initiated by addition of the MgATP mix. After incubation for 40 minutes at room temperature, the reaction was stopped by addition of 3% phosphoric acid solution. 10 μL of reaction mixture was spotted onto a P30 filtermat, washed three times for five minutes in 75 mM phosphoric acid and once in methanol prior, then dried and subjected to scintillation counting.

In assay [4] the test system is diet induced obese (DIO) mice. Kind of assay: Glucose, insulin, HbA1C and fat mass in high fat diet-induced obesity (DIO) mouse model. In kind it is in vivo. How it is done:
14 week-old male mice were randomized and divided into seven dosing groups with 16 animals in each group: 1) vehicle only (0.5% methylcellulose (w/v), 0.2% Tween 80 (w/v); negative control), 2) (+)-KDT501 25 mg/kg, 3) (+)-KDT501 50 mg/kg, 4) (+)-KDT501 100 mg/kg, 5) (+)-KDT501 200 mg/kg, 6) metformin 200 mg/kg (positive control), and 7) pioglitazone 30 mg/kg (positive control). Drugs were administered orally twice a day for 30 days.
Animals were weighed at randomization and once per week thereafter, with administration dosages calculated based on the most recent body weight measurements. The mice were maintained on a high fat diet (40% Kcal) (TD95217; prepared by Covance Laboratories, Greenfield, Ind.). Body composition was tested by qNMR on days −5 and 28 after the start of treatment. […]. An oral glucose tolerance test (OGTT) was performed on day 30 after the start of treatment. Mice underwent an overnight fast prior to OGTT, and tail bleeds for glucose and insulin were performed pre-glucose bolus and at 15, 30, 60, 90, and 120 minutes post-glucose bolus. The glucose bolus was 2 g dextrose/kg of body weight. OGTT results were evaluated by area under the curve (AUC) measurements and Dunnett's test.

Sequence of Human DAPK1 (P53355 whole entry): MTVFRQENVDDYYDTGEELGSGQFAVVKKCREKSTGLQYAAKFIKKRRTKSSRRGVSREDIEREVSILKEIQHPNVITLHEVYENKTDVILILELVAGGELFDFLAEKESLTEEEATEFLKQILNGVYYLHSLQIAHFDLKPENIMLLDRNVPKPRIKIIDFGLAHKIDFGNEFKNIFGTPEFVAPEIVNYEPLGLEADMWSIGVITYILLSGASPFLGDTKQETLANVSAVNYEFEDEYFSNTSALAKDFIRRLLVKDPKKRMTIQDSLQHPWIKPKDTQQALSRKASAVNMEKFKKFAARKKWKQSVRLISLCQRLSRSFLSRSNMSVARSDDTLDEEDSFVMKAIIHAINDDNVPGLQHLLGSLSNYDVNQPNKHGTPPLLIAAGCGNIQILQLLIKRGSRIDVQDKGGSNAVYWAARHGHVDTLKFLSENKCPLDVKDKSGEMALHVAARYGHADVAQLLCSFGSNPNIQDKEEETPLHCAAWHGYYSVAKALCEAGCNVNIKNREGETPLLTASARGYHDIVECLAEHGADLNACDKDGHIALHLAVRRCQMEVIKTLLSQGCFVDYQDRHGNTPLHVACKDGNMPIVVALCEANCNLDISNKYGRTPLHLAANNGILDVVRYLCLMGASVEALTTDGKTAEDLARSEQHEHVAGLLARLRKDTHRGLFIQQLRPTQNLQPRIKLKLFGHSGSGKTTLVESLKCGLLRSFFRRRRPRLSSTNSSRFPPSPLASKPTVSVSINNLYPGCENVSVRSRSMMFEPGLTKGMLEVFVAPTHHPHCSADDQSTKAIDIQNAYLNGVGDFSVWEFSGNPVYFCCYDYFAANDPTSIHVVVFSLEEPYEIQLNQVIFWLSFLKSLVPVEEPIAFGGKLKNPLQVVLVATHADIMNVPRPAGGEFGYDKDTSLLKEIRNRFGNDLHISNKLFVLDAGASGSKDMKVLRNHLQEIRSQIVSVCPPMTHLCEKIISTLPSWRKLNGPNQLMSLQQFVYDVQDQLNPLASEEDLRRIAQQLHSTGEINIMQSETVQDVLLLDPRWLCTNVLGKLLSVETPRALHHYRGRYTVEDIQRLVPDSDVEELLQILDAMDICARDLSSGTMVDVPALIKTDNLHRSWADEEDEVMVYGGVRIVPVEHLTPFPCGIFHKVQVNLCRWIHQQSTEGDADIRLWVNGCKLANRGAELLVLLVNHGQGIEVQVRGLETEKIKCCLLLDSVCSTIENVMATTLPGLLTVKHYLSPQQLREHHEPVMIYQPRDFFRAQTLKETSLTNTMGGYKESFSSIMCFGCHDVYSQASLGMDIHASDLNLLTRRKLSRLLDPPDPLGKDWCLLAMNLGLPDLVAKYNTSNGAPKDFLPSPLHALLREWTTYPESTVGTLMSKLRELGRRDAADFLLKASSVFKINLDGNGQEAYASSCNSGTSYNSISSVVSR

For orientation: EC50 means the concentration giving half of the maximal effect. For orientation: IC50 means the concentration needed to halve the response being measured. Turning to `CC(C)CCC(=O)[C@@]1(O)C(O)=C(C(=O)CC(C)C)C(=O)[C@@H]1CCC(C)C.[K]` [(+)-KDT501, (+)-(4S,5R)-3,4-dihydroxy-2-(3-methylbutanoyl)-5-(3-methylbutyl)-4-(4-methylpentanoyl)cyclopent-2-en-1-one potassium salt], in assay [1], the “expression of MMP-13” value is given as “inhibited” and the “expression of PGE2” value is given as “inhibited”. Besides, in assay [2], the 50% effective concentration (EC50) stood at 30.3 µM. For the same compound, the “fold difference in DAPK1 IC50 between the two compounds” value in assay [3] ((+)-KDT501 versus (−)-KDT501) is on record as roughly 15 fold. The IC50 in assay [3] (cell free assay) is 2.65 µM. Further, the “insulin levels from the OGTT” value in assay [4] (200 mg/kg orally twice a day, day 30) is recorded as “significant decrease”. Also, the “blood glucose levels from the OGTT” value in assay [4] (100 or 200 mg/kg orally twice a day, day 30) was “significant decrease”. Also, in assay [4] (100 or 200 mg/kg orally twice a day, qNMR day 28), the fat mass result was “significant difference in fat mass versus negative control mice”. Also, the HbA1C entry in assay [4] (orally twice a day, day 29, dose not specified) is given as “trend towards HbA1C inhibition”.
